Ends that are not written are not given here.
Columns and labels:
[1] = system: Atrogin-1, MuRF1, FoxO1, ALK4, Smad 1, Smad 3, PGC1b and TFAM mRNA; assay: myoblast transcriptome biomarker panel in RMS13 cells; assay type: cell-based, human; conditions: 24 h; albuterol 0.25 mm, pramlintide 1 mm, P/A 1 mm/0.25 μm
Experimental: (§1) Working in concert with UPS signaling is the myostatin pathway. By binding to ActRIIB, myostatin activates type-1 activin receptor serine kinases, ALK4 or ALK5, which phosphorylate Smads 2 and −3 (key biomarkers) to exert changes in gene transcription (above figure). […] To measure pathways regulating muscle atrophy and protein syntheses, the following key mRNA biomarkers were assayed: 1) Atrophy: MSTN, Atrogin-1, MuRF1, FoxO1, FoxO3, ALK4, Smad 1, Smad 3; 2) Anabolic: IGF1R, PGC1a, PGC1b, mitochondrial-FAM.
(§2) All RMS13 cells were treated for 24 hours with single or combination doses (n=10 each group). […] However, there was a strong trend for down regulation in P/A; […] treated cells for MuRF1 (34±7 vs. 22±5, p=0.068; PBS control vs. P/A; 1 mm/0.25 μm respectively) and Smad3 (91 ±9 vs. 73±9, p=0.055; PBS control vs. P/A; 1 mm/0.25 μm respectively).

IGF1R mRNA = IGF1R mRNA expression in RMS13 cells; assay type: cell-based, human; conditions: 24 h; pramlintide 1 mm, albuterol 0.25 mm, P/A 1 mm/0.25 μm
Experimental: as §1, §2

PGC1a mRNA = PGC1a mRNA expression in RMS13 cells; assay type: cell-based, human; conditions: 24 h; pramlintide 1 mm, albuterol 0.25 mm, P/A 1 mm/0.25 μm
Experimental: as §1, §2

myostatin mRNA = myostatin mRNA expression in RMS13 cells; assay type: cell-based, human
Experimental: as §1, §2
Pramlintide is chiefly used as an adjunct […] in type 1 and type 2 diabetes to help manage glycemia. The action of the two hormones complements one another to better control glucose metabolism and energy balance. We investigated whether pramlintide with or without insulin could modulate myostatin (key biomarker) mRNA. […] This negative result provides important rationale for both preclinical and clinical study designs (see below). Amylin is thought to function as a neuroendocrine hormone (Young, 1997) and has been shown over many decades to have an effect of lowering food intake. When given intracerebroventricularly (icv), amyl in reduces food intake and body weight in rodents in a dose-dependent manner (Rushing et al., 2001). […] Amylin is thought to regulate energy balance by inhibiting postprandial glucagon secretion and slowing the rate of nutrient delivery to the small intestine via an effect on gastric emptying. The rate of gastric emptying also plays a major role in blood glucose homeostasis in normal subjects by controlling the delivery of carbohydrate to the small intestine and the regulation of body weight (Reda et al., 2002). It has been proposed that amylin's effect on gastric emptying may be exerted via a central mechanism involving specific binding sites in the area postrema of the brain stem (Cline et al., 2008), and that the effect is mediated by the vagus nerve rather than a direct action on the stomach and digestion (D'Este et al., 1995; Maev and Dicheva, 2003). We have previously shown that the use of modified-pharmaceutical grade cellulose is able to dramatically slow the rate of gastric emptying and improve the lean-to-fat ratio in mice (Islam et al., 2012).
Calcitonin can be used therapeutically for the treatment of hypercalcemia or osteoporosis. Both calcitonin and amylin bind the same trimetric-calcitonin-ramp-receptor. An increased incidence of pituitary adenomas has been reported in rats given synthetic salmon calcitonin for 1 year. Calcitonin may be used diagnostically as a tumor marker for medullary thyroid cancer; also, elevated levels after surgery may indicate recurrence. Calcitonin may even be assayed in biopsy samples from suspicious lesions (e.g., lymph nodes that are swollen) to establish whether they are a metastasis of the original cancer (Bruera and Fainsinger, 1997; Busquets et al., 2012b). We next examined the dose-dependence relationship between the concentration of calcitonin and myostatin mRNA expression.

[2] = In Vivo Study 1: body weight and body composition by NMR, 8 weeks; parameters: species or system B6 mice; conditions: for muscle gain and body fat reduction: monotherapy: pramlintide 30 and 60 mg/kg/day, albuterol 24 mg/day
Experimental: Based on our in vitro experiments, we hypothesized that we could synergize muscle gain and improved biology with a combination of low doses of amylin (or agonist) and albuterol (or agonist). This study determined the effect of daily peripheral administration of pramlintide for 2-months on body weight, body composition and food intake in healthy, elderly mice.
Murine subjects were divided into seven treatment groups (total n=12): Group 1) SC […] vehicle (PBS); Group 2) SC 15 mg/kg/mouse of pramlintide; Group 3) SC 30 mg/kg/mouse of pramlintide; Group 4) SC 60 mg/kg/mouse of pramlintide; […]); Group 6) Albuterol 0.250 mg/kg. […]
The mice were housed in single cages with a 12:12 light cycle, and allowed ad libitum access to food and water throughout the experiment. On day-1 food was weighed and an amount sufficient to last weekly intervals was provided. For the first two-weeks, food intake and body weight were monitored daily and thereafter biweekly for the remainder of the experiment. Body composition by NMR-spectroscopy was the primary endpoint, measured at Day-1 and at the end of the protocol (8-weeks). At Day-5, the mice were randomized to treatment and control groups, such that each group had the same mean body weight. Mice were allowed to acclimate for 5-days to being the sole mouse in the cage. Each day mice were dosed 1 hour after lights on, and the 2nd dosing two hours prior to lights out when mice initiate feeding. Pramlintide was taken directly from the FDA-approved Symlin drug (pramlintide acetate) obtained through the Pennington Biomedical Research Center (PBRC) pharmacy. Final injection volumes were […] for vehicle or drugs. Symlin was supplied as a sterile drug at 0.6 mg/ml. All doses were adjusted according to this concentration.
Food intake in grams was measured manually each 24 hours. Body Composition was determined via NMR using a Bruker mini-spec system designed for rat or mouse. Animals were transported in microisolater covered cages to the designated room containing the NMR. […]

[3] = 7-week placebo controlled study in young, healthy BL-male mice; assay type: in vivo; conditions: for lean body mass (LBM): all treatment-arms (Gr 2-7); for bodyweight from baseline and relative to placebo control: pramlintide 30 and 60 mg/kg (Gr 3, 4), Salbutamol 24 mg (Gr 5), combinations (Gr 6, 7)
Experimental: In a recent pharmacology assessment in young, healthy BL-male mice, we completed a 7-week placebo controlled (Gr 1) study with treatment-arms that included the use of pramlintide alone at low (Gr 2. 15 mg/kg); mid (Gr 3. 30 mg/kg) and high (Gr 4. 60 mg/kg) or Salbutamol alone (Gr 5. 24 mg) or combined with Pramlintide (Gr 6. 15 mg/kg +12 mg of Salbutamol; Gr 7. 30 mg/kg +12 mg of Salbutamol).

FoxO3 mRNA = FoxO3 mRNA expression in RMS13 cells; assay type: cell-based, human; conditions: 24 h; pramlintide 1 mm, albuterol 0.25 mm, P/A 1 mm/0.25 μm
Experimental: as §1, §2

myostatin secretion = myostatin secretion into RMS13 myoblast culture media; assay type: cell-based, human; conditions: pramlintide 1 mm (p=0.061); P/A 1 mm/0.25 mm (p<0.05, greatest suppression)
Excerpt: Myostatin's main sites of actions are muscle and bone in a catabolic fashion. Both IGF1 and amylin have roles in regulating osteoblast-bone proliferation (Cornish et al., 2004; Cornish and Naot, 2002) and muscle mass. […] Although not intending to be bound by theory, we hypothesize that amylin alone and in combination with albuterol is able to directly suppress myostatin secretion in myoblasts.

[4] = system: mammalian target of rapamycin (mTOR); assay: mTOR activation in human myoblast RMS13 cells; assay type: cell-based; conditions: pramlintide alone at 1 and 5 mm, 24 h, both p<0.05
Excerpt: We first examined the association between a pramlintide and albuterol formulation (single and combination dosing) on the activity of the mammalian target of rapamycin (mTOR) in a human myoblast cell model derived from RMS13 cells (purchased from ATCC, Manassas, Va., USA). mTOR is a highly conserved kinase that exists in two functional complexes, TOR complex 1 (TORC1) and TOR complex 2 (TORC2), that are conserved from yeast to mammals. Given its high conservation across species, mTOR serves as a key biomarker for protein synthesis. mTOR (TORC1 and TORC 2) is a master kinase that is crucial for cell growth and is a chief enzyme in protein synthesis (Otulakowski et al., 2007). Determining optimal ratios and concentrations of each drug (in single or combination) was an important first step to guide the mechanism of action biomarker studies. This initial study was undertaken for 24 and 48 hours; only the 24-hour results are shown (n=6 each group).

[5] = in vivo; cited from earlier work
human myoblast = human myoblast treated 24 h with pramlintide, biomarkers; assay type: cell-based; conditions: 24 h pramlintide
Excerpt: Although not intending to be bound by theory, we hypothesize the amylin pathway has a role in the regulation of muscle mass in mammals and the use of pramlintide will result in improved body composition and increase muscle mass in healthy humans by lowering the production of myostatin and increasing protein synthesis via mTOR activation.

[6] = 24 h, pramlintide 1 mm, albuterol 0.25 mm, P/A 1 mm/0.25 μm
[7] = calcitonin dose-dependence, pramlintide 5 mm, p<0.05

| Molecule | Atrogin-1, MuRF1, FoxO1, ALK4, Smad 1, Smad 3, PGC1b and TFAM mRNA [1] | IGF1R mRNA expression (IGF1R mRNA) | PGC1a mRNA expression (PGC1a mRNA) | myostatin mRNA expression (myostatin mRNA; [6]) | muscle gain and body fat reduction [2] | lean body mass (LBM) [3] | bodyweight from baseline and relative to placebo control [3] | FoxO3 mRNA expression (FoxO3 mRNA) | myostatin mRNA expression (myostatin mRNA; [7]) | myostatin mRNA, pramlintide with or without insulin (myostatin mRNA; co-incubation of insulin with pramlintide) | myostatin secretion into myoblast culture media (myostatin secretion) | mTOR activation [4] | T-1/2-life [5] | myostatin and FoxO-1/-3 mRNA (human myoblast) | pro-anabolic targets (PGC1a, calcineurin mRNA and AkT and mTOR-activity) (human myoblast) | drop in body weight within the first week ([2]; pramlintide 60 mg/kg/day (Group 4)) |
| --- | --- | --- | --- | --- | --- | --- | --- | --- | --- | --- | --- | --- | --- | --- | --- | --- |
| CC(C)(C)NCC(O)c1ccc(O)c(CO)c1 (stereo not shown) [albuterol] | no change | up regulated | up regulated | no effect | Statistical improvements in muscle gain and body fat reduction | significantly increased | significant increases in bodyweight | down regulated | – | – | – | – | – | – | – | – |
| calcitonin (CGNLSTCMLGTYTQDFNKFHTFPQTAIGVGAP; ends and bridges not checked; cysteine pairing not given here; UniProt P01258 85-116, looked up) | – | – | – | – | – | – | – | – | did not modulate myostatin mRNA | – | – | – | – | – | – | – |
| insulin | – | – | – | – | – | – | – | – | – | no additive benefit | – | – | – | – | – | – |
| pramlintide acetate | no change | up regulated | up regulated | significantly lowered | Statistical improvements in muscle gain and body fat reduction | significantly increased | significant increases in bodyweight | significantly lowered | able to lower myostatin mRNA | – | lowered myostatin secretion | induced mTOR activation | ~45 min | down regulation of myostatin | elevation of pro-anabolic targets | −5% |

— patent US20210177941A1, “COMPOSITIONS FOR CHANGING BODY COMPOSITION, METHODS OF USE, AND METHODS OF TREATMENT” (Board of Supervisors of Louisiana State University and …, priority 2014, published 2021)
